Measurements: patent US20220054469A1, “FARNESOID X RECEPTOR AGONISTS AND USES THEREOF” (Metacrine, Inc., priority 2018, published 2022)

molecular target: T1, hFXR (Homo sapiens, UniProt Q96RI1); assay: In Vitro FXR Assay (TK); format: cell-based; conditions: CV-1 cells transfected with hFXR, hRXR, TK-ECRE-luc and pCMX-YFP; incubated with compound for 18 hrs; luminescence
T1 construct: expressed in transfected cells; host or cells: CV-1 cells
T1 sequence (Q96RI1 1-486): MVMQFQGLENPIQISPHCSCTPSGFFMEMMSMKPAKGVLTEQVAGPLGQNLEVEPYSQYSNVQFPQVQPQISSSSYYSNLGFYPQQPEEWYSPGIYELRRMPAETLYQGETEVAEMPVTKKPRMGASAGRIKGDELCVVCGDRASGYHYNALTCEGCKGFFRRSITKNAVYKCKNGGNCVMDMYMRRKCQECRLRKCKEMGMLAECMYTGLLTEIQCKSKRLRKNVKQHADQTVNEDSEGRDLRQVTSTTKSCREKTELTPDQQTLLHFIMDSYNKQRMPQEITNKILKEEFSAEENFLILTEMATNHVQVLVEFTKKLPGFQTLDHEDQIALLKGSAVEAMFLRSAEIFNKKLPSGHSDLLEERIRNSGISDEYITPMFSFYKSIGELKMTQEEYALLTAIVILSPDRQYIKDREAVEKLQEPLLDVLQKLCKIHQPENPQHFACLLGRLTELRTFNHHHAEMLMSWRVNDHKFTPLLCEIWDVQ
T1 sequence (P19793 1-462 partner): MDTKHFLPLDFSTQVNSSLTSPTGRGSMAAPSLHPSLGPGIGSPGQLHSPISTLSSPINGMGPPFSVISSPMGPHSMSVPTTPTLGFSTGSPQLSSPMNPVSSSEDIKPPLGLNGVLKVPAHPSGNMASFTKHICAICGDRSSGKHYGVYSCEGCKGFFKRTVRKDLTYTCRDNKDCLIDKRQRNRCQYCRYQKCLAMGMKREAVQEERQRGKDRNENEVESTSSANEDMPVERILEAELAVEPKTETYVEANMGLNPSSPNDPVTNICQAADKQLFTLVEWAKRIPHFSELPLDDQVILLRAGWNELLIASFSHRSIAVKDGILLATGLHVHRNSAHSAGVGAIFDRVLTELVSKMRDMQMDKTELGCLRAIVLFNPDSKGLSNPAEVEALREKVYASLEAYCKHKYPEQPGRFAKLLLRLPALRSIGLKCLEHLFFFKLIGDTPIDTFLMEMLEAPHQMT
Procedure: Example B-1: In Vitro FXR Assay (TK)
CV-1 cells were seeded at a density of 2,000,000 cells in a T175 flask with DMEM+10% charcoal double-stripped FBS and incubated at 37° C. in 5% CO2 for 18 h (O/N).
After 18 h of incubation, the medium in the T175 flask was changed with fresh DMEM+10% charcoal super-stripped serum. In a polypropylene tube, 2500 μL OptiMEM (Life Technologies, Cat #31985-062) was combined with expression plasmids for hFXR, hRXR, TK-ECRE-luc and pCMX-YFP. The tube was then briefly vortexed and incubated at room temperature for 5 minutes. Transfection reagent (X-tremeGENE HP from Roche, Cat #06 366 236 001) was added to the OptiMEM/plasmid mixture vortexed and incubated at room temperature for 20 minutes. Following incubation, the transfection reagent/DNA mixture complex was added to cells in the T175 flask and the cells were incubated at 37° C. in 5% CO2 for 18 h (O/N).
Compounds were serially diluted in DMSO and added to transfected CV-1 cells. The cells were then incubated for 18 hrs. The next day cells were lysed and examined for luminescence.

`COc1ccc([C@H]2CC[C@H](CN(c3cccc(-c4cnn(C(C)(C)C)c4)c3)C(=O)[C@H]3CC[C@H](C(=O)O)CC3)CC2)cc1C` [Compound 2.02, trans-4-((3-(1-(tert-Butyl)-1H-pyrazol-4-yl)phenyl)((trans-4-(4-methoxy-3-methylphenyl)cyclohexyl)methyl)carbamoyl) cyclohexanecarboxylic acid] and `COc1ccc([C@H]2CC[C@H](CN(c3cc(-c4cnn(C(C)(C)C)c4)ccn3)C(=O)[C@H]3CC[C@H](CC(=O)O)CC3)CC2)cc1C` [Compound 2.05, 2-(trans-4-((4-(1-(tert-Butyl)-1H-pyrazol-4-yl)pyridin-2-yl)((trans-4-(4-methoxy-3-methylphenyl)cyclohexyl)methyl)carbamoyl)cyclohexyl)acetic acid] fall in the same range of EC50: 50 to 1000 nM for the first, 50 to 1000 nM for the second.

`COc1ncc(C23CCC(CN(c4cc(-c5cnn(C(C)C)c5)ccn4)C(=O)[C@H]4CC[C@H](CC(=O)O)CC4)(CC2)CC3)cc1C` [Compound 4.12, trans-2-(4-((4-(1-Isopropyl-1H-pyrazol-4-yl)pyridin-2-yl)((4-(6-methoxy-5-methylpyridin-3-yl)bicyclo[2.2.2]octan-1-yl)methyl)carbamoyl)cyclohexyl)acetic acid] and `COc1ccc(C23CCC(CN(c4cc(-c5cnn(C(C)C)c5)ccn4)C(=O)[C@H]4CC[C@H](CCC(=O)O)CC4)(CC2)CC3)cc1C` [Compound 1, trans-3-(4-((4-(1-Isopropyl-1H-pyrazol-4-yl)pyridin-2-yl)((4-(4-methoxy-3-methylphenyl)bicyclo[2.2.2]octan-1-yl)methyl)carbamoyl)cyclohexyl)propanoic acid] cannot be ordered by EC50: no more than 50 nM for the first, no more than 50 nM for the second.

`COc1ccc(C23CCC(CN(c4cc(-c5cnn(C(C)C)c5)c(F)cn4)C(=O)[C@H]4CC[C@H](CC(=O)O)CC4)(CC2)CC3)cc1C` [Compound 2.10, trans-2-(4-((5-Fluoro-4-(1-isopropyl-1H-pyrazol-4-yl)pyridin-2-yl)((4-(4-methoxy-3-methylphenyl)bicyclo[2.2.2]octan-1-yl)methyl)carbamoyl)cyclohexyl)acetic acid] and `COc1ccc(C23CCC(CN(c4cncc(-c5cnn(C(C)C)c5)c4)C(=O)[C@H]4CC[C@H](CC(=O)O)CC4)(CC2)CC3)cc1C` (relative stereo) [Compound 2.11, trans-2-(4-((5-(1-Isopropyl-1H-pyrazol-4-yl)pyridin-3-yl)((4-(4-methoxy-3-methylphenyl)bicyclo[2.2.2]octan-1-yl)methyl)carbamoyl)cyclohexyl)acetic acid] cannot be ordered by EC50: no more than 50 nM for the first, 50 to 1000 nM for the second.

`COc1ccc([C@H]2CC[C@H](CN(c3cc(-c4cnc(C(C)C)s4)ccn3)C(=O)[C@H]3CC[C@H](CC(=O)O)CC3)CC2)cc1C` [Compound 2.12, 2-(trans-4-((4-(2-Isopropylthiazol-5-yl)pyridin-2-yl)((trans-4-(4-methoxy-3-methylphenyl)cyclohexyl)methyl)carbamoyl)cyclohexyl)acetic acid] and `COc1ccc(C23CCC(CN(c4cc(-c5cnc(C6CC6)s5)ccn4)C(=O)[C@H]4CC[C@H](CC(=O)O)CC4)(CC2)CC3)cc1C` [Compound 4.15, trans-2-(4-((4-(2-Cyclopropylthiazol-5-yl)pyridin-2-yl)((4-(4-methoxy-3-methylphenyl)bicyclo[2.2.2]octan-1-yl)methyl)carbamoyl)cyclohexyl)acetic acid] cannot be ordered by EC50: no more than 50 nM for the first, no more than 50 nM for the second.

`COc1ccc(C23CCC(CN(c4cccc(-c5nnc(C6CC6)o5)c4)C(=O)[C@H]4CC[C@H](CC(=O)O)CC4)(CC2)CC3)cc1C` [Compound 4.30, trans-2-(-4-((3-(5-Cyclopropyl-1,3,4-oxadiazol-2-yl)phenyl)((4-(4-methoxy-3-methylphenyl)bicyclo[2.2.2]octan-1-yl)methyl)carbamoyl)cyclohexyl)acetic acid] gave an EC50 of 50 to 1000 nM.
